These antisense oligonucleotides have a phosphorothioate backbone; sugars and methylation of C are not fully specified.
These sequences were tested against BIRC3. Conditions: ASO.
Further: test concentration or dose not given here.

Compared with TTTCTCTCTCCTCTTCCC, CCTTCGATGTATAGGACA is higher in remaining target (mRNA or protein) (fraction of control): 0.9 for the first, ≥ 1 for the second.

Going from TGGCTTGAACTTGACGGA to TTCAGTGGCATTCAATCA, the remaining target (mRNA or protein) (fraction of control) falls from ≥ 1 to 0.77.

Compared with TACAATTTCAATAATGCT, GTAAGTAATCTGGCATTT is higher in remaining target (mRNA or protein) (fraction of control): 0.62 for the first, ≥ 1 for the second.

Compared with TCATCTCCTGGGCTGTCT, CTTAGAGGTACGTAAAAT is higher in remaining target (mRNA or protein) (fraction of control): 0.6 for the first, 0.71 for the second.

GCATGGCTTTGCTTTTAT and AGCAGGAAAAGTGGAATA cannot be ordered by remaining target (mRNA or protein) (fraction of control): ≥ 1 for the first, ≥ 1 for the second.

Compared with TGAAGTGTCTTGAAGCTG, CACAAGACCTAACTCAAA is lower in remaining target (mRNA or protein) (fraction of control): ≥ 1 for the first, 0.73 for the second.

Going from GGGTCTCAGTATGCTGCC to AACATCATGTTCTTGTTC, the remaining target (mRNA or protein) (fraction of control) rises from 0.79 to 0.91.

Going from CATGTCCCTAAAATGTCA to CAAACGTGTTGGCGCTTT, the remaining target (mRNA or protein) (fraction of control) falls from ≥ 1 to 0.65.

AATTGTTCTTCCACTGGT and ATTTTAATTAGAAGCACT cannot be ordered by remaining target (mRNA or protein) (fraction of control): ≥ 1 for the first, ≥ 1 for the second.

Compared with TGTGTGACTCATGAAGCT, GCTCTGCTGTCAAGTGTT is lower in remaining target (mRNA or protein) (fraction of control): 0.77 for the first, 0.43 for the second.

Compared with ACTGAAGACATTTTGAAT, CTGAAATTTTGATTGAAT is higher in remaining target (mRNA or protein) (fraction of control): 0.38 for the first, 0.86 for the second.

First: TTTGACATCATCACTGTT
Second: AAATCTTGATTTGCTCTG
The remaining target (mRNA or protein) (fraction of control) of the first is higher: ≥ 1 for the first, 0.93 for the second.

Going from AGAGCCACGGAAATATCC to GCAGCATTAATCACAGGA, the remaining target (mRNA or protein) (fraction of control) rises from 0.91 to ≥ 1.

First: TTAAGGAAGAAATACACA
Second: AAGAAGGAGCACAATCTT
The remaining target (mRNA or protein) (fraction of control) of the first is higher: ≥ 1 for the first, 0.3 for the second.

Compared with GCACTTTTATTTCTTAGA, TAAAACCCTTCACAGAAG is higher in remaining target (mRNA or protein) (fraction of control): 0.3 for the first, ≥ 1 for the second.

Going from CTTCTCCAGGCTACTAGA to TTAACGGAATTTAGACTC, the remaining target (mRNA or protein) (fraction of control) rises from 0.5 to ≥ 1.

These sequences were tested against MAP2K4. Conditions: ASO.

Going from ATGGAGGATGATGGCTTGCT to GGAGACACAGCAATACGTGC, the remaining target (mRNA or protein) (fraction of control) falls from 0.83 to 0.61.

First: CACCTTCTTTGACAAGTGGC
Second: GAGCCGCCGCCGCCGCTCGG
The remaining target (mRNA or protein) (fraction of control) of the first is lower: 0.42 for the first, ≥ 1 for the second.

Going from GGAGCCGCCATTGTTGGGAG to TTTGTTTTAATAAAGATACA, the remaining target (mRNA or protein) (fraction of control) falls from 0.91 to 0.88.

Compared with TAGCAGCGATATCAATCGAC, TATCACATCAGTAATCTATT is higher in remaining target (mRNA or protein) (fraction of control): 0.55 for the first, ≥ 1 for the second.

Going from AAGGATGCACGTTCTAGGTG to GTTCATCACAAAAGAGCAGG, the remaining target (mRNA or protein) (fraction of control) rises from 0.55 to 0.89.

Going from TGTGTCCTTCCAGGATTTGG to CACTACTCCGCATTACTACA, the remaining target (mRNA or protein) (fraction of control) falls from 0.7 to 0.56.

First: ATGCTGCTGACGGCCGGGTG
Second: AATCGACATACATGGGAGAG
The remaining target (mRNA or protein) (fraction of control) of the first is higher: 0.76 for the first, 0.55 for the second.

TATTTTAATGTTCACCTCTT and TAGAAATGAATTTAAGATGT cannot be ordered by remaining target (mRNA or protein) (fraction of control): ≥ 1 for the first, ≥ 1 for the second.

Going from GGCTCGGAGCCGCCATTGTT to AAATTTGGCTGAGCACATCG, the remaining target (mRNA or protein) (fraction of control) falls from 0.56 to 0.53.

First: TAGAGTCTGATGTAGCAGCG
Second: AGACCTGGACCAGTGATGGC
The remaining target (mRNA or protein) (fraction of control) of the first is higher: 0.79 for the first, 0.6 for the second.

First: GCCTCTTGTAACAGTGCTGA
Second: AACACCAATCTTATTGCACA
The remaining target (mRNA or protein) (fraction of control) of the first is lower: 0.47 for the first, 0.98 for the second.

In the case of GCTCGGGCTCGGAGCCGCCA, the remaining target (mRNA or protein) (fraction of control) is reported as 0.47.
